Data published in patent US11657895B2, “Methods for identifying treatment targets based on multiomics data” (INSTITUTE FOR SYSTEMS BIOLOGY, priority 2016, dated 2023).

Columns and labels:
[1] = tested on: HA, T98G and U251 cell lines; test: Apoptosis screen across the HA, T98G and U251 cell lines; type: cell-based, human; conditions: oncogene inhibitor paired with miRNA mimic(s) targeting the same oncogene; cell lines listed
[2] = tested on: HA, T98G and U251 cell lines; test: Proliferation screen across the HA, T98G and U251 cell lines; conditions: for Signficant Effect on Proliferation (cell lines): oncogene inhibitor paired with miRNA mimic(s) targeting the same oncogene, cell lines listed
U251 = test: Proliferation in GBM-derived cell line U251; type: cell-based; conditions: Homo sapiens, U-251
GBM cell lines = conditions: 1.85 nM romidepsin, Sawa et al., 2004; cited from earlier work
[3] = Iwamoto et al., 2011; cited from earlier work

SMILES	Significant Effect on Apoptosis (cell lines) [1]	Signficant Effect on Proliferation (cell lines) [2]	IC50 (U251) [nM]	Effect in GBM cell lines (GBM cell lines)	Rank of single-agent effects on proliferation and apoptosis [2]	half-life in patients [3]
CNC(=O)c1cc(Oc2ccc(NC(=O)Nc3ccc(Cl)c(C(F)(F)F)c3)cc2)ccn1 [Sorafenib, 4-[4-[[4-chloro-3-(trifluoromethyl)phenyl]carbamoylamino]phenoxy]-N-methyl-pyridine-2-carboxamide]	HA, 198G					
O=C(CCCCCCC(=O)Nc1ccccc1)NO [Vorinostat, N-Hydroxy-N′-phenyloctanediamide]		HA, U251				
C/C=C1\NC(=O)[C@H]2CSSCC/C=C/[C@H](CC(=O)N[C@H](C(C)C)C(=O)N2)OC(=O)[C@H](C(C)C)NC1=O [romidepsin, (1S,4S,7Z,10S,16E,21R)-7-ethylidene-4,21-diisopropyl-2-oxa-12,13-dithia-5,8,20,23-tetrazabicyclo[8.7.6]tricos-16-ene-3,6,9,19,22-pentone]		HA, U251	1.1	anti-proliferative and pro-apoptotic	strongest effects on proliferation and apoptosis in every cell line	short half-life
